Results on 7 compounds are retold here after patent publication US11999759B2, “Boronic acid derivatives and therapeutic uses thereof” (Qpex Biopharma, Inc., priority 2016, dated 2024).

pKi: −log10 of the molar value.

The target of one series is CTX-M-14 (Escherichia coli, UniProt Q9L5C7). Description: Inhibition of nitrocefin cleavage by purified CTX-M-14. It is filed as biochemical. As to conditions: nitrocefin reporter substrate; 10 min preincubation at room temperature; read-out: Ki (CTX-M-14, NCF). As to the method: (§1) Ki values of inhibition of purified class A, C and D enzymes were determined spectrophotometrically using nitrocefin as reporter substrate. Purified enzymes were mixed with various concentrations of inhibitors in reaction buffer and incubated for 10 min at room temperature. Nitrocefin was added and substrate cleavage profiles were recorded at 490 nm every 10 sec for 10 min.
Sequence of CTX-M-14 (Q9L5C7 29-291, species assumed): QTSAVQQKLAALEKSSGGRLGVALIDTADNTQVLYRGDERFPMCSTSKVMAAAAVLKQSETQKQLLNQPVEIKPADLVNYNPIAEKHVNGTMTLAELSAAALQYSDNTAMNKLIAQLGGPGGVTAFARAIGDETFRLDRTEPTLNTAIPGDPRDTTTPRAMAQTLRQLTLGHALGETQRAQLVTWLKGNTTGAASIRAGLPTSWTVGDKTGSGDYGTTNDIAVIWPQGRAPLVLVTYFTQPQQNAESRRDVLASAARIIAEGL

In a further series the target is SHV-12 (Klebsiella pneumoniae, UniProt P0AD64, E235K/G234S/L31Q). Briefly: Inhibition of nitrocefin cleavage by purified SHV-12. It is filed as biochemical. The conditions noted are these: nitrocefin reporter substrate; 10 min preincubation at room temperature; read-out: Ki (SHV-12, NCF). Here is the method: as §1
Sequence of SHV-12 (P0AD64 22-286 L31Q/G234S/E235K): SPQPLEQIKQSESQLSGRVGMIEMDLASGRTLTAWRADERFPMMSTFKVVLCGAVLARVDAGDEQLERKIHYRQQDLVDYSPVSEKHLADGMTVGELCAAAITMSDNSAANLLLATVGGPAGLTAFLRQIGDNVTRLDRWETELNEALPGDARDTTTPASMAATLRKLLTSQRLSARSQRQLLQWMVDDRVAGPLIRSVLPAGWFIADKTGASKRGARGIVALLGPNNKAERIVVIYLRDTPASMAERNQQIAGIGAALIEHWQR
A further series deals with KPC-2 (Klebsiella pneumoniae, UniProt Q9F663). Description: Inhibition of nitrocefin cleavage by purified KPC-2. It is filed as biochemical. As to conditions: nitrocefin reporter substrate; 10 min preincubation at room temperature; read-out: Ki (KPC-2, NCF). Put shortly: (§2)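 Spectrophotometric Ki: enzyme + inhibitor (varied conc.), 10 min RT preincubation; nitrocefin added; A490 read every 10 sec for 10 min.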
Sequence of KPC-2 (Q9F663 25-293 limits assumed): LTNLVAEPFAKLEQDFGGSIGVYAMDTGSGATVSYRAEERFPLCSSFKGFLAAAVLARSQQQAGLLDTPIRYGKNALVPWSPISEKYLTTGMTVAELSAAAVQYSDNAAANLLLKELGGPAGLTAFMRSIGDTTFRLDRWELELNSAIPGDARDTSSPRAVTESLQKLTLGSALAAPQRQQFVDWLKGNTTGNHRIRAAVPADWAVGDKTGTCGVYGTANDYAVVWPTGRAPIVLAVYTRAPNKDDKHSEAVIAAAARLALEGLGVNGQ

The target in a further series is P99 (Enterobacter cloacae, UniProt P05364). Briefly: biochemical. As to conditions: nitrocefin reporter substrate; 10 min preincubation at room temperature; read-out: Ki (P99, NCF). Here is the method:
as §1

Another series addresses Pa-AmpC (Pseudomonas aeruginosa, UniProt P24735). Briefly: biochemical. As to conditions: nitrocefin reporter substrate; 10 min preincubation at room temperature; read-out: Ki (Pa-AmpC, NCF). Here is the method: as §1
Another series deals with OXA-48 (Klebsiella pneumoniae, UniProt Q6XEC0). Description: Inhibition of nitrocefin cleavage by purified OXA-48. It is filed as biochemical. The conditions noted are these: nitrocefin reporter substrate; 10 min preincubation at room temperature; read-out: Ki (OXA-48, NCF). Put shortly: as §2
Sequence of OXA-48 (Q6XEC0 23-265, looked up): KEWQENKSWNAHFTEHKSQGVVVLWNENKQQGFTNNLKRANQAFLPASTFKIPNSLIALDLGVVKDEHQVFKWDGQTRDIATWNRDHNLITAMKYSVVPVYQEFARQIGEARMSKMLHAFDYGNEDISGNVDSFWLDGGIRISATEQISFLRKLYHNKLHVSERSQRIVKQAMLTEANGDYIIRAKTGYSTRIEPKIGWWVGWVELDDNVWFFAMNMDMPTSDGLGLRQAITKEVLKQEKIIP
The next series concerns the target OXA-23 (Acinetobacter baumannii, UniProt Q9L4P2). Description: Inhibition of nitrocefin cleavage by purified OXA-23. Format: biochemical. The conditions noted are these: nitrocefin reporter substrate; 10 min preincubation at room temperature; read-out: Ki (OXA-23, NCF). Put shortly:
as §2

The next series addresses VIM-1 (Pseudomonas aeruginosa, UniProt A0A0F7KYQ8). Briefly: Inhibition of nitrocefin cleavage by purified VIM-1. It is filed as biochemical. The conditions noted are these: nitrocefin reporter substrate; 10 min preincubation at room temperature; read-out: Ki (VIM-1, NCF).
The target of the next series is IMP-1 (Serratia marcescens, UniProt P52699). Briefly: Inhibition of imipenem cleavage by purified IMP-1. The conditions noted are these: imipenem reporter substrate; 37° C.; read-out: Ki (IMP-1, IMI). It is filed as biochemical. Put shortly: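 Purified enzymes preincubated with varying inhibitor concentrations for 10 min at room temperature, then imipenem added as reporter substrate. Hydrolysis followed spectrophotometrically at 294 nm every 30 s for 30 min at 37° C; Ki values derived.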
Sequence of IMP-1 (P52699 19-246, looked up, species assumed): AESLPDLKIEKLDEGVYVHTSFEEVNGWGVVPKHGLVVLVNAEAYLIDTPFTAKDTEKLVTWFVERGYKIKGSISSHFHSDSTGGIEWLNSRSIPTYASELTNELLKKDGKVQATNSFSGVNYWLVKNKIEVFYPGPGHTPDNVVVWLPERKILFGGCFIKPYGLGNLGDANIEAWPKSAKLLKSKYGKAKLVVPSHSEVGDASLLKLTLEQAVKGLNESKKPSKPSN

The test system of series [1] is PAM1032/KPC-2 (overexpressed MexAB-OprM). Description: Biapenem potentiation (MPC64) in PAM1032/KPC-2. Format: cell-based, Pseudomonas aeruginosa. Further details: PAM1032/KPC-2 Biapenem MPC64: unit not given here. The conditions noted are these: BLI potency to decrease biapenem MIC 64-fold, from 32 to 0.5 μg/ml; efflux proficient strain. A digest of the protocol: (§3)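 KPC-2 plasmid-expressing P. aeruginosa strains were used to measure BLI potentiation of biapenem as MPC64. The PAM1032/KPC-2 to PAM1154/KPC-2 MPC64 ratio gave the Efflux Index.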

For series [2], the system named is PAM1154/KPC-2 (lacked MexAB-OprM). Briefly: Biapenem potentiation (MPC64) in PAM1154/KPC-2. Format: cell-based, Pseudomonas aeruginosa. Further details: PAM1154/KPC-2 Biapenem MPC64: unit not given here. The conditions noted are these: BLI potency to decrease biapenem MIC 64-fold, from 32 to 0.5 μg/ml; efflux deficient strain. Put shortly:
as §3

Another series addresses NDM-1 (Klebsiella pneumoniae, UniProt C7C422). Briefly: Inhibition of imipenem cleavage by purified NDM-1. It is filed as biochemical. The conditions noted are these: imipenem reporter substrate; 37° C.; read-out: Ki (NDM-1, IMI). Here is the method:
Purified enzymes were mixed with various concentrations of inhibitors in reaction buffer and incubated for 10 min at room temperature. Imipenem was added and substrate cleavage profiles were recorded at 294 nm every 30 seconds for 30 minutes at 37° C.

Series [3] in a line: Stability of compound 13 prodrugs in human serum. The conditions noted are these: 37° C., prodrug 50.0 μg/mL. Format: in vitro ADME. As to the method:
The rate of hydrolysis for several prodrugs of 13 was evaluated in vitro by measuring their stability in human serum and human liver microsomes. All serum stability experiments were conducted by aliquoting 10 μL of test compound at 500 μg/mL (10× final concentration) in 95:5 water:acetonitrile v/v into 1.5 mL Eppendorf tubes. […] The tubes were then warmed to 37° C. in a water bath along with human serum (Bioreclamations) in a separate tube. Serum esterase activity for each lot of serum used was established by assaying an unrelated ester prodrug as a control. To initiate the reaction, 90 μL of serum was added to tubes for all timepoints using a repeating-tip pipette, thereby bringing the final concentration of test compound to 50 μg/mL and the final concentration of acetonitrile to 0.5% v/v. At each timepoint, the reaction was halted and serum proteins precipitated through the addition of an equal volume of cold acetonitrile containing 25 μg/mL diclofenac as an internal standard. […] Sample analysis for serum stability experiments was conducted using an Agilent 1100 binary pump HPLC equipped with a diode array detector set to monitor absorbance at 286 nm (8 nm bandwidth). […] The samples were analyzed together with appropriate blanks in order to ensure specificity. […] The rate of activation was determined by monitoring the concentration of test compound as follows. The peak area for the analyte was divided by the peak area for the internal standard to give an area ratio. The area ratio for each timepoint was divided by the area ratio for timepoint 0 to give the percent remaining at each timepoint. The natural logarithm of the percent remaining versus time was plotted using Microsoft Excel and fitted to a linear trendline.

Series [4] is described as follows: Stability of compound 13 prodrugs in human liver microsomes (HLM). Format: in vitro ADME. As to conditions: 0.500 mg/mL human liver microsomes, no cofactors, prodrug 1.00 μM. Here is the method:
In the meantime, a 20.0 mg/mL solution of human liver microsomes (XenoTech, LLC) was diluted to 1.00 mg/mL (2× final concentration). Esterase activity for each lot of microsomes used was established by assaying an unrelated ester prodrug as a control. Both the Eppendorfs for each timepoint and the diluted liver microsomes were then warmed to 37° C. in a water bath. No cofactors (e.g. NADPH) were added to ensure that only hydrolytic reactions as opposed to reactions mediated by other cofactor-dependent enzymes (e.g. CYP450 enzymes) would take place. To initiate the reaction, 50 μL of diluted human liver microsomes was added to tubes for all timepoints using a repeating-tip pipette, thereby bringing the final concentration of test compound to 1.00 μM and the final concentration of human liver microsomes to 0.500 mg/mL. At each timepoint, the reaction was halted and proteins precipitated through the addition of 200 μL of 10:45:45 water:methanol:acetonitrile v/v/v containing an unrelated ester prodrug at 250 ng/mL as an internal standard. […] Sample analysis for microsome stability experiments was conducted using a 20.0 μL injection on a LEAP PAL autosampler with Agilent 1100 binary pump HPLC coupled to an AB Sciex 3200 QTrap mass spectrometer. […] Detection was in positive mode; source parameters and parent-daughter ion selection criteria were chosen as needed for each compound to achieve an appropriate limit of detection and signal-to-noise ratio. The samples were analyzed together with appropriate blanks in order to ensure specificity. The rate of hydrolysis for each prodrug was determined by monitoring the concentration of test compound as follows. The peak area for the analyte was divided by the peak area for the internal standard to give an area ratio. The area ratio for each of the two replicates at each timepoint was divided by the area ratio for timepoint 0 to give the percent remaining at each timepoint. The natural logarithm of the percent remaining versus time for all replicates was plotted using Microsoft Excel and fitted to a linear trendline.
In general terms: Liver microsomes are vesicles of endoplasmic reticulum, rich in cytochrome P450 enzymes.

As usually defined, the pKi is the negative decadic logarithm of the Ki, by convention in mol/L. In general, half-life refers to the time needed for the level to fall by half in the phase considered.

Sequence of Pa-AmpC (P24735 27-397): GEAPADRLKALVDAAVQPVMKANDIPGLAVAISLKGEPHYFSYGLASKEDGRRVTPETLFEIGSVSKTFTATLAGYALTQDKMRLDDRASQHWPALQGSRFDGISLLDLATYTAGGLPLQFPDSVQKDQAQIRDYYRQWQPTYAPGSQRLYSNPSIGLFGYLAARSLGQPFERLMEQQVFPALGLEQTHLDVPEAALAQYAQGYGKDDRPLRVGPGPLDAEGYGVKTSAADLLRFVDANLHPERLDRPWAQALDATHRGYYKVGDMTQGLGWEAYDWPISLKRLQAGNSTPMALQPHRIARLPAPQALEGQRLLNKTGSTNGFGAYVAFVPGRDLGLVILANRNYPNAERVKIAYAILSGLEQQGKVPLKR
Sequence of OXA-23 (Q9L4P2 18-273): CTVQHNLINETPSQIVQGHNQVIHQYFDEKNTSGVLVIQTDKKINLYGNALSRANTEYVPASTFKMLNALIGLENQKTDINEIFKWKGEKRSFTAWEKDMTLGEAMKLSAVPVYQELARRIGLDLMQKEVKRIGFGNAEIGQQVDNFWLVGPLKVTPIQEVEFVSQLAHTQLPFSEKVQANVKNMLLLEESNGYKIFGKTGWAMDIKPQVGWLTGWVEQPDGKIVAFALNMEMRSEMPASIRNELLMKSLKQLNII
Sequence of P99 (P05364 21-381): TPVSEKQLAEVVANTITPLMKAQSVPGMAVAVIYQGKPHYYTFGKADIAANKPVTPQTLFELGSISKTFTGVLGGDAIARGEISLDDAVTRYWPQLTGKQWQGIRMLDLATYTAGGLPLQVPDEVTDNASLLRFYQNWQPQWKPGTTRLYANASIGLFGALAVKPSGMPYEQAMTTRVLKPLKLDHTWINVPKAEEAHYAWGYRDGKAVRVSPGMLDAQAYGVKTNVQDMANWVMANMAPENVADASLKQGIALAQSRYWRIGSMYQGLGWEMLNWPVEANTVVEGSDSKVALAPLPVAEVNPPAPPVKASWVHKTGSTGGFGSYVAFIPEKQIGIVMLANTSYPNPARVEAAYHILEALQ
Sequence of NDM-1 (C7C422 29-270, looked up, species assumed): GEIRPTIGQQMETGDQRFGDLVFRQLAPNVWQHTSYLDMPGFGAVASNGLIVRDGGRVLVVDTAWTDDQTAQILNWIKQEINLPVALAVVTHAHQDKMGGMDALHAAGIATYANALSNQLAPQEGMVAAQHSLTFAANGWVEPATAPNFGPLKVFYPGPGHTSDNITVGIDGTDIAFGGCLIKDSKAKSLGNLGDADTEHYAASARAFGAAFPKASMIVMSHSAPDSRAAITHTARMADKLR

Turning to `O=C(O)c1c(F)ccc2c1OB(O)[C@@H]1C[C@H]21` [Compound 13, (1aR,7bS)-5-fluoro-2-hydroxy-1a,7b-dihydro-1H-cyclopropa[c][1,2]benzoxaborinine-4-carboxylic acid], the pKi at CTX-M-14, at SHV-12, on KPC-2, at P99, at Pa-AmpC and at OXA-48 was more than 7.00 in each case. The figures for the pKi on OXA-23, at VIM-1 and on IMP-1 were more than 7.00, more than 7.00 and 6.00 to 7.00, respectively. The “PAM1032/KPC-2 Biapenem MPC64” value in [1] is 2.5. Also, the “PAM1154/KPC-2 Biapenem MPC64” value in [2] is reported as 2.5.
As for `O=C(O)c1c(F)ccc2c1OB(O)[C@H]1C[C@@H]21` [Compound 12, (1aS,7bR)-5-fluoro-2-hydroxy-1a,7b-dihydro-1H-cyclopropa[c][1,2]benzoxaborinine-4-carboxylic acid], the pKi is more than 7.00 at CTX-M-14; more than 7.00 on SHV-12; more than 7.00 at KPC-2; more than 7.00 at P99; 6.00 to 7.00 at Pa-AmpC; more than 7.00 at OXA-48. Besides, the negative-log Ki (pKi) is more than 7.00 on OXA-23, less than 6.00 at VIM-1 and less than 6.00 on IMP-1. Besides, the “PAM1032/KPC-2 Biapenem MPC64” value in series [1] turned out to be 2.5. Further, the “PAM1154/KPC-2 Biapenem MPC64” value in series [2] was 1.25.
Turning to `COc1ccc2c(c1C(=O)O)OB(O)C1C2[C@H]2CC[C@@H]1C2` (stereo partly drawn) [Compound 7, (7R,10S)-6-hydroxy-3-methoxy-6a,7,8,9,10,10a-hexahydro-6H-7,10-methanodibenzo[c,e][1,2]oxaborinine-4-carboxylic acid], the negative-log Ki (pKi) was more than 7.00 at CTX-M-14; 6.00 to 7.00 at SHV-12; more than 7.00 on KPC-2; more than 7.00 on P99; more than 7.00 on Pa-AmpC; more than 7.00 on OXA-48. Also, the pKi at OXA-23, on VIM-1, at NDM-1 and at IMP-1 was more than 7.00 throughout.
On to `COc1ccc2c(c1C(=O)O)OB(O)C1C2[C@H]2C=C[C@@H]1C2` (stereo partly drawn) [Compound 6, (7R,10R)-6-hydroxy-3-methoxy-6a,7,10,10a-tetrahydro-6H-7,10-methanodibenzo[c,e][1,2]oxaborinine-4-carboxylic acid], for which the negative logarithm of the Ki (pKi) was less than 6.00 on CTX-M-14; 6.00 to 7.00 at SHV-12; more than 7.00 on KPC-2; more than 7.00 on P99; more than 7.00 at Pa-AmpC; more than 7.00 on OXA-48. The pKi at OXA-23 is 6.00 to 7.00; at VIM-1, 6.00 to 7.00; on NDM-1 it was less than 6.00; on IMP-1, less than 6.00.
`O=C(O)c1cccc2c1OB(O)C1CC21` (centres unmarked) [Compound 10, 2-Hydroxy-1a,7b-dihydro-1H-cyclopropa[c][1,2]benzoxaborinine-4-carboxylic acid]: the pKi at CTX-M-14, at SHV-12, on KPC-2, at P99, at Pa-AmpC and on OXA-48 was more than 7.00 throughout. In addition, the pKi at OXA-23 is more than 7.00; at VIM-1 it was more than 7.00; on NDM-1, more than 7.00; at IMP-1 it was 6.00 to 7.00.
With `COCC(=O)OCOC(=O)c1c(F)ccc2c1OB(O)[C@@H]1C[C@H]21` [Compound 43, (2-Methoxyacetyl)oxymethyl (1aR,7bS)-5-fluoro-2-hydroxy-1a,7b-dihydro-1H-cyclopropa[c][1,2]benzoxaborinine-4-carboxylate], the “% of initial area ratio at t = 0 min” value in series [3] (t = 0 min) was determined as 100%. In series [3] (t = 5 min), the “% of initial area ratio at t = 5 min” value came to 58.6%. The “% of initial area ratio at t = 10 min” value in series [3] (t = 10 min) is recorded as 34.5%. The “% of initial area ratio at t = 30 min” value in series [3] (t = 30 min) is listed as 2.9%. For the same compound, in series [4] (t = 0 min), the “Average % of initial area ratio at t = 0 min” value was 100%. The “Average % of initial area ratio at t = 5 min” value in series [4] (t = 5 min) came out at 64.4%. For the same compound, the “Average % of initial area ratio at t = 10 min” value in [4] (t = 10 min) was found to be 44.6%. Also, the “Average % of initial area ratio at t = 30 min” value in [4] (t = 30 min) is on record as 0.6%. In addition, the half-life at 1 μM in series [4] (pH 7.4, read-out: Estimated half-life (minutes) (rounded to nearest integer value)) is 4 min.
Consider `COc1ccc2c(c1C(=O)O)OB(O)CC21CC1` [Compound 11, 2-hydroxy-7-methoxy-spiro[3H-1,2-benzoxaborinine-4,1′-cyclopropane]-8-carboxylic acid], for which the pKi on CTX-M-14, at SHV-12, on KPC-2, at P99, on Pa-AmpC and on OXA-48 was more than 7.00 each time. The pKi on OXA-23 is more than 7.00; on VIM-1, 6.00 to 7.00; on NDM-1, more than 7.00; on IMP-1, 6.00 to 7.00.
